From patent US20220347175A1, “PYRIDAZINONE DERIVATIVE” (Sumitomo Dainippon Pharma Co., Ltd., priority 2018, published 2022)

Assays:
human Nav1.1 = target: T1, human Nav1.1 (Homo sapiens, UniProt P35498); test: Amplification of Nav1.1-derived voltage-dependent sodium current (Nav1.1 current), cell line stably expressing human Nav1.1, automated patch clamp; type: cell-based
T1 construct: host or cells: HEK293
Method in brief: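 Amplification rate (%) is 100 × post-compound/pre-compound Nav1.1 peak current or AUC, minus 100. Ramp-evoked sodium currents were recorded by automated patch clamp in a human Nav1.1 HEK293 stable line, restricted to cells exceeding 500 pA, with compounds added in extracellular solution containing 1% DMSO.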

human Nav1.5 = target: T2, human Nav1.5 (Homo sapiens, UniProt Q14524); test: Amplification of Nav1.5-derived voltage-dependent sodium current (Nav1.5 current), cell line stably expressing human Nav1.5, automated patch clamp; type: cell-based
T2 construct: expressed in transfected cells; host or cells: CHO-K1 (T-REx System, ThermoFisher Scientific)
T2 sequence (Q14524 1-2015 isoform Q14524-2): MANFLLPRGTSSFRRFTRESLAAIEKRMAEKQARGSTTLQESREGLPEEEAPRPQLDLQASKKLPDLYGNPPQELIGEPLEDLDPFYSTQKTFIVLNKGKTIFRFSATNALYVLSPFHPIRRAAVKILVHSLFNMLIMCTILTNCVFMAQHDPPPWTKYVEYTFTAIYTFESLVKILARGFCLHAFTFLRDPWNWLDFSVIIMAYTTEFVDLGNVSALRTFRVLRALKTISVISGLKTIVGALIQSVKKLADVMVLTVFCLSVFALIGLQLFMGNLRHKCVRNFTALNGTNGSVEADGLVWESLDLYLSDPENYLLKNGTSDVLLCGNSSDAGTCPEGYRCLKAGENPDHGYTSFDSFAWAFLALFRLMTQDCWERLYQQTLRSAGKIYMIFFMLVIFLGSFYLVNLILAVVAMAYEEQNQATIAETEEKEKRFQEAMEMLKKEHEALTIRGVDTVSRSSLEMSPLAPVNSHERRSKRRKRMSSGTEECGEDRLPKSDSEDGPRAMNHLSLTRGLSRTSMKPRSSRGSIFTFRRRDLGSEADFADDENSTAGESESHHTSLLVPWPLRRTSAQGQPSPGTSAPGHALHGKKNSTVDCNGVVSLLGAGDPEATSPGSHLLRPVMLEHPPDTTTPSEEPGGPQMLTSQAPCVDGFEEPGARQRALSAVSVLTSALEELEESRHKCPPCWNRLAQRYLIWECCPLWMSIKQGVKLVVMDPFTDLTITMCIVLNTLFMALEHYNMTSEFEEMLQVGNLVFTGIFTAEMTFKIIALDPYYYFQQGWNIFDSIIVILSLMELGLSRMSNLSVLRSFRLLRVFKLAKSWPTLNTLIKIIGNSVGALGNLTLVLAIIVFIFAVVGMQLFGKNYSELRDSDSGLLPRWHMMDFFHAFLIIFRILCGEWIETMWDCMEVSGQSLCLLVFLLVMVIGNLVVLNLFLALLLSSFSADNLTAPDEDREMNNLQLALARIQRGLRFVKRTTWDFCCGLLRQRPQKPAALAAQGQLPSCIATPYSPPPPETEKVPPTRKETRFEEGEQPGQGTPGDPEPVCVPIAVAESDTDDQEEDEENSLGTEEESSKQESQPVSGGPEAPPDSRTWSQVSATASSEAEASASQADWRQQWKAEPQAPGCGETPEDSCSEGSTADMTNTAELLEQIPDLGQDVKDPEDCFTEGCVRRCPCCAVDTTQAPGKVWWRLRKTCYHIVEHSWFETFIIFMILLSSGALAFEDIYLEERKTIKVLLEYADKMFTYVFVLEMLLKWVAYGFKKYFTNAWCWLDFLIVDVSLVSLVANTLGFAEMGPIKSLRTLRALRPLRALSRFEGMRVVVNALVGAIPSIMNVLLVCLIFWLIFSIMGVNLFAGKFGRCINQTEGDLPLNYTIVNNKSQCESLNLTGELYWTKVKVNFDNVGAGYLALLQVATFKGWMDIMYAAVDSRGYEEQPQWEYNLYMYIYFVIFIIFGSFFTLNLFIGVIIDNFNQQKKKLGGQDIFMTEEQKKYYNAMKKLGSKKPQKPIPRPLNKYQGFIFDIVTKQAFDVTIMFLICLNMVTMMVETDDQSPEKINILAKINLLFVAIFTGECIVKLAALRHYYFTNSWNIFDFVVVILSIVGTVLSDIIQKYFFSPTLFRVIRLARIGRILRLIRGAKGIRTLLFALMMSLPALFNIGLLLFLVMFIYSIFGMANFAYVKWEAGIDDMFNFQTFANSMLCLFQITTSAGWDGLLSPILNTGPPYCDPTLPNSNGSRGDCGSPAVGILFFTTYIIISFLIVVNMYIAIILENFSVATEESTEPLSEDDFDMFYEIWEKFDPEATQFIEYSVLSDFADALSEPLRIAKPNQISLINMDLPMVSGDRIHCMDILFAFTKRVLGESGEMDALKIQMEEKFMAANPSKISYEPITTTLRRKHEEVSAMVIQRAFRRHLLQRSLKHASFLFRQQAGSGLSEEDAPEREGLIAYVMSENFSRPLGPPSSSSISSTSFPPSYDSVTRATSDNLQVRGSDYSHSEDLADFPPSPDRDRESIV

[1] = compound 1 μmol/L, HEK293 stably expressing human Nav1.1, read-out: Nav1.1 current amplification rate (%)
[2] = compound 1 μmol/L, CHO-K1 stably expressing human Nav1.5, read-out: Nav1.5 current amplification rate (%)
[3] = 10 μmol/L compound, change of the area under the curve of Nav1.1 current (Test Result 1)
[4] = 10 μmol/L compound, change of the area under the curve of Nav1.5 current (Test Result 1)
[5] = compound 3 μmol/L, HEK293 stably expressing human Nav1.1
[6] = compound 3 μmol/L, CHO-K1 stably expressing human Nav1.5

Row | SMILES | Nav1.1 current amplification rate (%) (human Nav1.1; [3]) | Nav1.5 current amplification rate (%) (human Nav1.5; [4]) | other results
1 | Cc1cnc2cc(NC(=O)Cn3nc(N4CCC(C)CC4)ccc3=O)ccn12 [Example 232] |  |  | activation at 10 µM (human Nav1.1; 10 μmol/L compound, change of the area under the curve of Nav1.1 current (Test Result 1), read-out: Nav1.1 current amplification rate (%)): 37%; activation at 10 µM (human Nav1.5; 10 μmol/L compound, change of the area under the curve of Nav1.5 current (Test Result 1), read-out: Nav1.5 current amplification rate (%)): 8%
2 | CC1(C)CCN(c2ccc(=O)n(CC(=O)N3CCc4c(-c5cccnc5)cccc43)n2)CC1 [Example 234] |  |  | activation at 1 µM (human Nav1.1; [1]): 240%; activation at 1 µM (human Nav1.5; [2]): 4%
3 | CC1(C)CCN(c2ccc(=O)n(CC(=O)N3CCc4c(-c5ccnnc5)cccc43)n2)CC1 [Example 235] |  |  | activation at 1 µM (human Nav1.1; [1]): 198%; activation at 1 µM (human Nav1.5; [2]): 7%
4 | CC1CC=C(c2ccc(=O)n(CC(=O)Nc3ccc4oc(N(C)C)nc4c3)n2)CC1 (stereo not shown) [Example 244, N-[2-(dimethylamino)-1,3-benzooxazol-5-yl]-2-[3-(4-methylcyclohex-1-en)-6-oxopyridazin-1(6H)-yl]acetamide] |  |  | activation at 3 µM (human Nav1.1; compound 3 μmol/L, HEK293 stably expressing human Nav1.1, read-out: Nav1.1 current amplification rate (%)): 263%; activation at 3 µM (human Nav1.5; compound 3 μmol/L, CHO-K1 stably expressing human Nav1.5, read-out: Nav1.5 current amplification rate (%)): 21%
5 | CC1CC=C(c2ccc(=O)n(CC(=O)N3CC=C(c4cccnc4)CC3)n2)CC1 (stereo not shown) [Example 402] | 323% | 21% | 
6 | COc1cncc(C2=CCN(C(=O)Cn3nc(C4=CCC(C)CC4)ccc3=O)CC2)c1 (stereo not shown) [Example 403] | 270% | 12% | 
7 | CC1CC=C(c2ccc(=O)n(CC(=O)N3CC=C(c4nccc5occc45)CC3)n2)CC1 (stereo not shown) [Example 404] | 42% | 6% | 
8 | CC1CC=C(c2ccc(=O)n(CC(=O)N3CCN(c4cncc(OC(F)F)c4)CC3)n2)CC1 (stereo not shown) [Example 405] |  |  | Nav1.1 current amplification rate (%) (human Nav1.1; [5]): 268%; Nav1.5 current amplification rate (%) (human Nav1.5; [6]): 14%
9 | COc1ccc(N2CCN(C(=O)Cn3nc(C4=CCC(C)CC4)ccc3=O)CC2)cn1 (stereo not shown) [Example 407] |  |  | Nav1.1 current amplification rate (%) (human Nav1.1; [5]): 113%; Nav1.5 current amplification rate (%) (human Nav1.5; [6]): 6%
10 | COc1ncc(N2CCN(C(=O)Cn3nc(C4=CCC(C)CC4)ccc3=O)CC2)cc1F (stereo not shown) [Example 409] |  |  | Nav1.1 current amplification rate (%) (human Nav1.1; [5]): 244%; Nav1.5 current amplification rate (%) (human Nav1.5; [6]): 11%
11 | Cc1ncccc1N1CCN(C(=O)Cn2nc(C3=CCC(C)CC3)ccc2=O)CC1 (stereo not shown) [Example 410] |  |  | Nav1.1 current amplification rate (%) (human Nav1.1; [5]): 66%; Nav1.5 current amplification rate (%) (human Nav1.5; [6]): 10%
12 | COc1cc(N2CCN(C(=O)Cn3nc(C4=CCC(C)CC4)ccc3=O)CC2)ccc1F (stereo not shown) [Example 413] |  |  | Nav1.1 current amplification rate (%) (human Nav1.1; [5]): 27%; Nav1.5 current amplification rate (%) (human Nav1.5; [6]): 1%
13 | CC1CC=C(c2ccc(=O)n(CC(=O)N3CCN(c4nccs4)CC3)n2)CC1 (stereo not shown) [Example 414] | 40% | −2% | 
14 | CC1CC=C(c2ccc(=O)n(CC(=O)N3CCN(c4cnn(C)c4)CC3)n2)CC1 (stereo not shown) [Example 415] | 93% | 2% | 
15 | CC1CC=C(c2ccc(=O)n(CC(=O)N3CC(C)N(c4cccnc4)C(C)C3)n2)CC1 (stereo not shown) [Example 416] | 383% | 86% | 
16 | CC1CC=C(c2ccc(=O)n(CC(=O)N3C[C@H](C)N(c4cccnc4)C[C@H]3C)n2)CC1 (stereo partly shown) [Example 417] |  |  | Nav1.1 current amplification rate (%) (human Nav1.1; [5]): 23%; Nav1.5 current amplification rate (%) (human Nav1.5; [6]): 1%
17 | COc1cnc(C)c(N2CCN(C(=O)Cn3nc(C4=CCC(C)CC4)ccc3=O)CC2)c1 (stereo not shown) [Example 418] |  |  | Nav1.1 current amplification rate (%) (human Nav1.1; [5]): 105%; Nav1.5 current amplification rate (%) (human Nav1.5; [6]): 7%
18 | CC1CC=C(c2ccc(=O)n(CC(=O)Nc3ccn4cc(C(F)(F)F)nc4c3)n2)CC1 (stereo not shown) [Example 421] | 199% | 34% | 
19 | Cc1nc2cc(NC(=O)Cn3nc(C4=CCC(C)CC4)ccc3=O)ccc2o1 (stereo not shown) [Example 422] | 287% | 28% | 
20 | Cc1noc2ccc(NC(=O)Cn3nc(C4=CCC(C)CC4)ccc3=O)cc12 (stereo not shown) [Example 423] | 11% | 4% | 
21 | CC1CC=C(c2ccc(=O)n(CC(=O)N3CC4(C3)CN(c3cccnc3)C4)n2)CC1 (stereo not shown) [Example 424] | 40% | 2% | 

Row | SMILES | Nav1.1 current amplification rate (%) (human Nav1.1; [3]) | Nav1.5 current amplification rate (%) (human Nav1.5; [4]) | other results
22 | CC1(C)CC=C(c2ccc(=O)n(CC(=O)Nc3ccn4ccnc4c3)n2)CC1 [Example 425] | 283% | 60% | 
23 | CC1(C)CC=C(c2ccc(=O)n(CC(=O)Nc3ccc4c(c3)OCC4)n2)CC1 [Example 426] | 244% | 20% | 
24 | CC1(C)CC=C(c2ccc(=O)n(CC(=O)Nc3ccn4nccc4c3)n2)CC1 [Example 427] | 172% | 63% | 
25 | CC1(C)CC=C(c2ccc(=O)n(CC(=O)Nc3ccc4ncnn4c3)n2)CC1 [Example 428, 2-[3-(4,4-dimethylcyclohex-1-en-1-yl)-6-oxopyridazin-1(6H)-yl]-N-([1,2,4]triazolo[1,5-a]pyridin-6-yl)acetamide] |  |  | activation at 1 µM (human Nav1.1; [1]): 109%; activation at 1 µM (human Nav1.5; [2]): 23%
26 | CC1(C)CC=C(c2ccc(=O)n(CC(=O)Nc3ccn4ncnc4c3)n2)CC1 [Example 429, 2-[3-(4,4-dimethylcyclohex-1-en-1-yl)-6-oxopyridazin-1(6H)-yl]-N-([1,2,4]triazolo[1,5-a]pyridin-7-yl)acetamide] |  |  | activation at 1 µM (human Nav1.1; [1]): 101%; activation at 1 µM (human Nav1.5; [2]): 28%
27 | COc1ccc2c(c1)CCN2C(=O)Cn1nc(C2=CCC(C)(C)CC2)ccc1=O [Example 430] | 28% | 22% | 
28 | COc1cccc2c1CCN2C(=O)Cn1nc(C2=CCC(C)(C)CC2)ccc1=O [Example 431] | 11% | 3% | 
29 | CC1(C)CC=C(c2ccc(=O)n(CC(=O)N3CCc4c(N5CCOCC5)cccc43)n2)CC1 [Example 432] |  |  | Nav1.1 current amplification rate (%) (human Nav1.1; compound 1 μmol/L, HEK293 stably expressing human Nav1.1): 280%; Nav1.5 current amplification rate (%) (human Nav1.5; compound 1 μmol/L, CHO-K1 stably expressing human Nav1.5): 16%
30 | CN1CCN(c2cccc3c2CCN3C(=O)Cn2nc(C3=CCC(C)(C)CC3)ccc2=O)CC1 [Example 433] | 192% | 10% | 
31 | COC1CN(c2cccc3c2CCN3C(=O)Cn2nc(C3=CCC(C)(C)CC3)ccc2=O)C1 [Example 434] | 232% | 142% | 
32 | COCOc1cccc2c1CCN2C(=O)Cn1nc(C2=CCC(C)(C)CC2)ccc1=O [Example 435] | 262% | 14% | 
33 | CC1(C)CC=C(c2ccc(=O)n(CC(=O)N3CCc4c(OC5COC5)cccc43)n2)CC1 [Example 436] | 226% | 31% | 
34 | CC1(C)CC=C(c2ccc(=O)n(CC(=O)N3CCc4c(C5CN(C(=O)CO)C5)cccc43)n2)CC1 [Example 437] |  |  | Nav1.1 current amplification rate (%) (human Nav1.1; [5]): 582%; Nav1.5 current amplification rate (%) (human Nav1.5; [6]): 194%
35 | CC1(C)CC=C(c2ccc(=O)n(CC(=O)N3CCc4c(C5CN(C6COC6)C5)cccc43)n2)CC1 [Example 438] |  |  | Nav1.1 current amplification rate (%) (human Nav1.1; [5]): 404%; Nav1.5 current amplification rate (%) (human Nav1.5; [6]): 25%
36 | CC1(C)CC=C(c2ccc(=O)n(CC(=O)N3CCN(c4ccccn4)CC3)n2)CC1 [Example 439] | 87% | −4% | 
37 | CC1(C)CC=C(c2ccc(=O)n(CC(=O)N3CCN(c4cccnc4)CC3)n2)CC1 [Example 440] | 196% | 7% | 
38 | CC1(C)CC=C(c2ccc(=O)n(CC(=O)N3CCC4(CCOCC4)CC3)n2)CC1 [Example 441] | 30% | 1% | 
39 | Cc1cncc(N2CCN(C(=O)Cn3nc(C4=CCC(C)(C)CC4)ccc3=O)CC2)c1 [Example 442] | 414% | 27% | 
40 | Cc1ccc(N2CCN(C(=O)Cn3nc(C4=CCC(C)(C)CC4)ccc3=O)CC2)cn1 [Example 443] | 114% | 1% | 
41 | CC1(C)CC=C(c2ccc(=O)n(CC(=O)N3CCN(c4cncc(F)c4)CC3)n2)CC1 [Example 444] | 292% | 10% | 
